Assay: Binding affinity against Opioid receptor delta 1 in guinea pig brain homogenates, using [3H]DPDPE as radioligand.

In the case of `CC1(C)SSC[C@@H](NC(=O)[C@@H]2NCC[C@@H]2c2ccc(O)cc2)C(=O)N[C@@H](Cc2ccccc2)C(=O)N[C@@H]1C(=O)O`, the Ki is reported as 84 nM.

In the case of `CC1(C)SSC[C@@H](NC(=O)[C@H]2NCC[C@@H]2c2ccc(O)cc2)C(=O)N[C@@H](Cc2ccccc2)C(=O)N[C@@H]1C(=O)O`, the Ki is reported as 0.66 nM.

Source: BindingDB's records for doi:10.1021/jm00101a030 (University of Michigan, 1992)
